The values below come from paper PMC10620989, “Going beyond Binary: Rapid Identification of Protein–Protein Interaction Modulators Using a Multifragment Kinetic Target-Guided Synthesis Approach” (Journal of Medicinal Chemistry, 2023).

In one assay the target is Bcl-XL (Homo sapiens, UniProt Q07817). The experiment in a line: Multifragment KTGS incubation with Bcl-XL (9 TA x 9 SZ in one well), LC-MS/MS. The conditions noted are these: 81 combinations in one well, 5 μM Bcl-XL, phosphate buffer pH 7.4, 8 h.
Bcl-XL, sequence (Q07817 whole entry, species assumed, the tested form may be a part): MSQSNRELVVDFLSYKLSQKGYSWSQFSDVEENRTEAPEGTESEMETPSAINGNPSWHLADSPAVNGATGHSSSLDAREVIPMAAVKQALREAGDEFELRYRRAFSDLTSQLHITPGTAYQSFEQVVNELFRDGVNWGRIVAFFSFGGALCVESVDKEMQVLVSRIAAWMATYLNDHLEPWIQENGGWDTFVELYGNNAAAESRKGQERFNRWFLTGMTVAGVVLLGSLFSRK
In assay [1] the target is T1, Mcl-1 (Mus musculus, UniProt P97287). The experiment in a line: Multifragment KTGS screen against Mcl-1 (5 TA x 38 SZ per well), LC-MS/MS. The following applies: multifragment KTGS, 190 combinations per well, 10 μM Mcl-1, 20 μM each fragment, pH 7.4, 37 °C, 10 h; peak area with protein / without protein.
T1 sequence (P97287 whole entry, the tested form may be a part): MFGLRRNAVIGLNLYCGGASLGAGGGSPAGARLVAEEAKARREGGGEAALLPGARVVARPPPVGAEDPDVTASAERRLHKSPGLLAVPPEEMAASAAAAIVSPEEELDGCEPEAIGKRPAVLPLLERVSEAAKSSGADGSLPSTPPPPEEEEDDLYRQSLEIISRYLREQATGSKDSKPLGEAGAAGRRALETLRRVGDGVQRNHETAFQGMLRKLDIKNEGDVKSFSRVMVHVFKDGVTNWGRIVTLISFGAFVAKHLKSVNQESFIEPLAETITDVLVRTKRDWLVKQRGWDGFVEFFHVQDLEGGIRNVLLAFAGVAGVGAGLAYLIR
Assay [2] has as its target T1, Mcl-1. The experiment in a line: Binary KTGS incubation (1 TA x 1 SZ) with Mcl-1, LC-MS/MS. The conditions noted are these: binary incubation mixtures with and without Mcl-1.
Assay [3] deals with GST-tagged mouse Mcl-1-(152–309) (Mus musculus, UniProt P97287). In words: Fluorescence polarization competitive binding assay, GST-Mcl-1 / FITC-Bim-BH3. The arrangement: selectivity index: reference not given here. The conditions noted are these: for inhibition at 50 µM: compound at 50 µM.
GST-tagged mouse Mcl-1-(152–309), sequence (P97287 152-309): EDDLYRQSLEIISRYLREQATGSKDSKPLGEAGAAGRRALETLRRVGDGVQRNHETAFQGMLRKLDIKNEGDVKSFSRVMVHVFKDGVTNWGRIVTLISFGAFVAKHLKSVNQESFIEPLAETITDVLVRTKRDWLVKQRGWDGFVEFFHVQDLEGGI
The target in assay [4] is T2, GST-Bcl-XL (Homo sapiens, UniProt Q07817). In words: Fluorescence polarization assay, GST-Bcl-XL / fluorescein-labeled Bak BH3 peptide. It counts as binding. The following applies: FP, GST-Bcl-XL and fluorescein-labeled Bak BH3 peptide; ND = not detected.
T2 sequence (Q07817 whole entry): as the sequence (Q07817 whole entry, species assumed, the tested form may be a part) above
For assay [5], the target named is T2, GST-Bcl-XL. Set-up: method as in PMID 21892513. The following applies: 50 μM; ref 15b; cited from earlier work.
Where [6] appears, read: FP, GST-Mcl-1 and fluorescein-labeled Bim BH3 peptide, read-out: IC50 on Mcl-1.

Read-outs that look alike come from different tables or passages of the source.

Consider `COc1cc(OC)cc(C(=O)NS(=O)(=O)c2ccc(CN(CCSc3ccccc3)Cc3ccc(S(=O)(=O)N=[N+]=[N-])cc3)cc2)c1` [SZ9TA5, O=C(NS(C1=CC=C(CN(CC2=CC=C(S(=O)(N=[N+]=[N-])=O)C=C2)CCSC3=CC=CC=C3)C=C1)(=O)=O)C4=CC(OC)=CC(OC)=C4], for which, on Bcl-XL, the Amplification coefficient was 7.6. Besides, the “Amplification coefficient 5TA x 38SZ” value at Mcl-1 [1] was 8. For the same molecule, the “Amplification coefficient 1TA x 1SZ” value at Mcl-1 [2] came out at 4.5. Besides, the IC50 (in general, the concentration at which inhibition is half-maximal) in assay [3] (setting [6]) stood at 8.1 µM. In addition, testing at 50 µM in assay [3] (FP) gave an inhibition of 99%.

For the molecule `O=C(NS(=O)(=O)c1ccc(CN(CCSc2ccccc2)Cc2c(F)cccc2Cl)cc1)c1ccc(OC(F)(F)F)cc1` [SZ15TA8, O=C(NS(C1=CC=C(CN(CCSC2=CC=CC=C2)CC3=C(F)C=CC=C3Cl)C=C1)(=O)=O)C4=CC=C(OC(F)(F)F)C=C4], the “Amplification coefficient 5TA x 38SZ” value at Mcl-1 [1] is listed as 7. In addition, the “Amplification coefficient 1TA x 1SZ” value on Mcl-1 [2] came to 6. Besides, the half-maximal inhibitory concentration (IC50) was found to be 47 µM at GST-Bcl-XL [4] and 7.6 µM in assay [3] (IC50 on Mcl-1). The selectivity index in assay [3] came out at 6.2. In addition, the inhibition (in general, the percentage by which the read-out fell short of the control) at 50 µM in assay [3] (FP) was determined as 96.5%.

On to `O=C(Cn1c2ccccc2c2ccccc21)NS(=O)(=O)c1ccc(CN(CCSc2ccccc2)Cc2ccc3c(c2)OCO3)cc1` [SZ31TA15, O=C(NS(C1=CC=C(CN(CC2=CC(OCO3)=C3C=C2)CCSC4=CC=CC=C4)C=C1)(=O)=O)CN5C(C=CC=C6)=C6C7=C5C=CC=C7], for which the “Amplification coefficient 5TA x 38SZ” value at Mcl-1 [1] was 72. At Mcl-1 [2], the “Amplification coefficient 1TA x 1SZ” value turned out to be 6. For the same molecule, on GST-Bcl-XL [4], the “IC50 on Bcl-XL” value is reported as “below the detectable threshold”. For the same molecule, the IC50 in assay [3] (setting [6]) amounted to 14 µM. In assay [3] (FP), this molecule yielded an inhibition at 50 µM of 80.7%.

Turning to `[N-]=[N+]=NS(=O)(=O)c1ccc(CN(CCSc2ccccc2)Cc2ccc(S(=O)(=O)NC(=O)c3cccc4ccccc34)cc2)cc1` [SZ9TA7, O=C(NS(C1=CC=C(CN(CC2=CC=C(S(=O)(N=[N+]=[N-])=O)C=C2)CCSC3=CC=CC=C3)C=C1)(=O)=O)C4=C(C=CC=C5)C5=CC=C4], on Bcl-XL, the Amplification coefficient is recorded as 7.1. Besides, the “Amplification coefficient 5TA x 38SZ” value at Mcl-1 [1] is 23. Further, at Mcl-1 [2], the “Amplification coefficient 1TA x 1SZ” value is given as 6. Moreover, the values for the IC50 (against GST-Bcl-XL [4]; in assay [3] (setting [6])) were 66.3 µM and 8.2 µM, respectively. In assay [3] (FP), this molecule showed an inhibition at 50 µM of 94.1%. Further, the “inhibition of the Bcl-XL/Bak BH3 interaction” value on GST-Bcl-XL [5] was 45%.

Regarding `CC1(C)CCN(c2ccc(C(=O)NS(=O)(=O)c3ccc(NCCSc4ccccc4)c([N+](=O)[O-])c3)cc2)CC1` [SZ4TA2, reference compound], the Amplification coefficient on Bcl-XL is 15.0.

For the molecule `COc1cccc(CN(CCSc2ccccc2)Cc2ccc(S(=O)(=O)NC(=O)c3sc(-c4ccccc4)nc3C)cc2)c1` [SZ17TA3, O=C(NS(C1=CC=C(CN(CC2=CC(OC)=CC=C2)CCSC3=CC=CC=C3)C=C1)(=O)=O)C4=C(C)N=C(C5=CC=CC=C5)S4], the “Amplification coefficient 5TA x 38SZ” value at Mcl-1 [1] worked out at 25. The “Amplification coefficient 1TA x 1SZ” value on Mcl-1 [2] is reported as 12. The values for the IC50 (against GST-Bcl-XL [4]; in assay [3] (setting [6])) were 50 µM and 8.6 µM, respectively. In assay [3] (FP), this molecule displayed an inhibition at 50 µM above 99%.

As to `CC1(C)CCN(c2ccc(C(=O)NS(=O)(=O)c3ccc4ccc(S(=O)(=O)NCCSc5ccccc5)cc4c3)cc2)CC1` [SZ7TA2], the Amplification coefficient on Bcl-XL is reported as 15.2.

Turning to `O=C(NS(=O)(=O)c1ccc(CN(CCSc2ccccc2)Cc2c(F)cccc2Cl)cc1)c1ccccc1` [SZ15TA1, O=C(NS(C1=CC=C(CN(CCSC2=CC=CC=C2)CC3=C(F)C=CC=C3Cl)C=C1)(=O)=O)C4=CC=CC=C4], the “Amplification coefficient 5TA x 38SZ” value at Mcl-1 [1] is listed as 13. Moreover, on Mcl-1 [2], the “Amplification coefficient 1TA x 1SZ” value stood at 5. In addition, the figures for the concentration for half-maximal inhibition (IC50) (against GST-Bcl-XL [4]; in assay [3] (IC50 on Mcl-1)) were 29.1 µM and 9.7 µM, respectively. The same molecule gave an inhibition at 50 µM in assay [3] (FP) of 92.5%.

On to `O=C(NS(=O)(=O)c1ccc(CN(CCSc2ccccc2)Cc2c(F)cccc2Cl)cc1)c1ccc(CCc2ccccn2)cc1` [SZ15TA17, O=C(NS(C1=CC=C(CN(CCSC2=CC=CC=C2)CC3=C(F)C=CC=C3Cl)C=C1)(=O)=O)C4=CC=C(CCC5=NC=CC=C5)C=C4], for which the “Amplification coefficient 5TA x 38SZ” value on Mcl-1 [1] is 7. For the same molecule, on Mcl-1 [2], the “Amplification coefficient 1TA x 1SZ” value is recorded as 7. The values for the half-inhibitory concentration (IC50) (on GST-Bcl-XL [4]; in assay [3] (IC50 on Mcl-1)) were 55.9 µM and 20.2 µM, respectively. In assay [3] (FP), this molecule had an inhibition at 50 µM of 89.5%.

Turning to `[N-]=[N+]=NS(=O)(=O)c1ccc(CN(CCSc2ccccc2)Cc2ccc(S(=O)(=O)NC(=O)c3ccccc3)cc2)cc1` [SZ9TA1, O=C(NS(C1=CC=C(CN(CC2=CC=C(S(=O)(N=[N+]=[N-])=O)C=C2)CCSC3=CC=CC=C3)C=C1)(=O)=O)C4=CC=CC=C4], the Amplification coefficient on Bcl-XL is 7.3. The “Amplification coefficient 5TA x 38SZ” value at Mcl-1 [1] is recorded as 14. Besides, the “Amplification coefficient 1TA x 1SZ” value on Mcl-1 [2] was determined as 4. The IC50 against GST-Bcl-XL [4] was found to be 28.8 µM; in assay [3] (setting [6]), 19.8 µM. Also, the inhibition at 50 µM in assay [3] (FP) was 97.3%.

`COc1ccc(Cc2ccc(C(=O)NS(=O)(=O)c3ccc(CN(CCSc4ccccc4)Cc4ccc5c(c4)OCO5)cc3)cc2)c(OC)c1OC` [SZ31TA24, O=C(NS(C1=CC=C(CN(CC2=CC(OCO3)=C3C=C2)CCSC4=CC=CC=C4)C=C1)(=O)=O)C5=CC=C(CC6=C(OC)C(OC)=C(OC)C=C6)C=C5]: the “Amplification coefficient 5TA x 38SZ” value at Mcl-1 [1] was 7. The “Amplification coefficient 1TA x 1SZ” value on Mcl-1 [2] was 15. Further, at GST-Bcl-XL [4], the “IC50 on Bcl-XL” value is reported as “below the detectable threshold”. The IC50 in assay [3] (setting [6]) is 20 µM. Moreover, the inhibition at 50 µM in assay [3] (FP) turned out to be 82.4%.

For the molecule `COc1cccc(CN(CCSc2ccccc2)Cc2ccc(S(=O)(=O)NC(=O)c3cccc4ccccc34)cc2)c1` [SZ17TA7, O=C(NS(C1=CC=C(CN(CC2=CC(OC)=CC=C2)CCSC3=CC=CC=C3)C=C1)(=O)=O)C4=C(C=CC=C5)C5=CC=C4], at Mcl-1 [1], the “Amplification coefficient 5TA x 38SZ” value turned out to be 10. Also, at Mcl-1 [2], the “Amplification coefficient 1TA x 1SZ” value amounted to 12. Besides, the IC50 was 72 µM against GST-Bcl-XL [4] and 20.1 µM in assay [3] (setting [6]). Besides, the inhibition at 50 µM in assay [3] (FP) worked out at 87.3%.

Regarding `O=C(NS(=O)(=O)c1ccc(CNc2cccc([N+](=O)[O-])c2)cc1)c1ccc(CN2C(=O)C(c3ccc(F)cc3F)=C(c3ccc(F)cc3F)C2=O)cc1` [SZ12TA42, O=C(NS(C1=CC=C(CNC2=CC=CC([N+]([O-])=O)=C2)C=C1)(=O)=O)C3=CC=C(CN4C(C(C5=C(F)C=C(F)C=C5)=C(C6=CC=C(F)C=C6F)C4=O)=O)C=C3], on Mcl-1 [1], the “Amplification coefficient 5TA x 38SZ” value came out at 9. Moreover, the “Amplification coefficient 1TA x 1SZ” value at Mcl-1 [2] was 6. For the same molecule, the “IC50 on Bcl-XL” value at GST-Bcl-XL [4] was “below the detectable threshold”. For the same molecule, the IC50 in assay [3] (setting [6]) stood at 13.6 µM. This molecule also displayed an inhibition at 50 µM in assay [3] (FP) of 89.4%.
